# Results published in patent US20260085069A1, “PRODRUGS” (Cambridge Enterprise Limited, priority 2022, published 2026).
# Key:
# [1] = type: in vitro ADME; details: rat plasma, 37° C.
# Procedure: 5 μL of a 10 mM stock solution of the Examples were dissolved in 495 μL DMSO to afford 500 μL working solution Assay procedure:
# 98 μL plasma was added to each well of a 96-well reaction plate, using one plate per timepoint (Blank, TO, T10, T30, T60, and T120). 2 μL of working solution was added to each well of the reaction plates except Blank. Each plate was incubated at 37° C. for the indicated timepoint (0, 10, 30, 60, 120 minutes). At the end of incubation, 400 μL of stop solution (200 ng/mL tolbutamide and 200 ng/mL labetalol in 0.1% FA in ACN) was added to precipitate protein. The plates were then sealed and shaken for 20 minutes before centrifugation at 4000 rpm for 20 minutes. […] Formation of parent was also monitored as a metabolite.
# [2] = Solubility in simulated fluids (kinetic solubility, 24 hours); type: physicochemical; details: thermodynamic from solid, 24 hour timepoint, room temperature
# Procedure: A known quantity of the Examples and control compounds were weighed into a suitable vessel (whatman miniuniprep vials) and a known volume of the required media was added (e.g. Simulated Gastric Fluid pH 1.2 [SGF], Simulated Fasted State Intestinal Fluid pH 6.5 [FaSSIF] or Phosphate Buffered Saline pH 7.4 [PBS]). The samples were subjected to vortex mixing for 2 minutes followed by agitation on a shaker for 24 hours at room temperature at 800 rpm.
# [3] = Stability in aqueous media (FaSSIF, SGF, PBS); type: physicochemical; details: for FaSSIF (pH 6.5) % remaining 1 h / FaSSIF (pH 6.5) % remaining 6 h / FaSSIF (pH 6.5) % remaining 24 h: FaSSIF pH 6.5, 37° C.; for PBS (pH 7.4) % remaining 1 h / PBS (pH 7.4) % remaining 6 h / PBS (pH 7.4) % remaining 24 h: PBS pH 7.4, 37° C.; for SGF (pH 1.2) % remaining 1 h / SGF (pH 1.2) % remaining 6 h / SGF (pH 1.2) % remaining 24 h: SGF pH 1.2, 37° C.
# Procedure: 10 μL of a 10 mM stock solution of the Examples were dissolved in 490 μL DMSO to afford […] working solution SGF (pH 1.2):
# Dissolve 0.04 g NaCl and 0.064 g pepsin in 0.14 mL HCl and add sufficient water to 20 mL volume. The pH of the test solution was 1.20±0.05.
# 0.056% (w/v) lecithin, 0.161% (w/v) sodium taurocholate, 0.39% (w/v) monobasic potassium phosphate, 0.77% (w/v) potassium chloride, deionized H2O. The pH of the test solution was 6.5±0.05.
# 30 mL of 10×PBS (pH7.4) was added into a 50 mL flask and diluted with water. The solution was mixed well and adjusted to pH 7.4 with 1 N HCl.
# 2 μL of the 200 μL working solution of the Examples was added into 96-deep-well plates for TO, T60, T120, T360 and T1440 timepoints. Duplicates were prepared.
# Stability studies were commenced by the addition of 198 μL of the required media (e.g. Simulated Gastric Fluid pH 1.2 [SGF], Simulated Fasted State Intestinal Fluid pH 6.5 [FaSSIF]) and Phosphate Buffered Saline pH 7.4 [PBS]) to each well except TO. The samples were incubated at 37° C. at 600 rpm for the appointed time. The samples at the corresponding timepoint were removed and immediately mixed with 400 μL of cold acetonitrile containing 200 ng/mL tolbutamide and labetalol (internal standard). The samples were centrifuged at 4000 rpm at 4° C. for 20 minutes. 60 μL of the supernatant was removed and mixed with 180 μL purified water and thoroughly mixed and analysed by LCMS (Shimadzu LC 30-AD, ACQUITY UPLC BEH Phenyl 1.7 um 2.1*50 mm Part No. 186002884, with mobile phase A: 0.1% formic acid in water, mobile phase B: 0.1% formic acid in acetonitrile). Formation of parent was also monitored as a metabolite.
# Samples were analysed by Mass Spectrometry QTRAP 6500+.
# in vitro = in vitro ADME; details: rat intestinal microsomes, NADPH, 37° C.
# Procedure: 5 μL of a 10 mM stock solution of the Examples were dissolved in 495 μL acetonitrile to afford 500 μL working solution.
# The appropriate amount of β-Nicotinamide adenine dinucleotide phosphate reduced form, tetrasodium salt; NADPH-4Na (NADPH) powder was weighed and diluted into a 10 mM MgCl2 solution (working solution concentration: 10 unit/mL; final concentration in reaction system: 1 unit/mL).
# The appropriate concentrations of rat intestinal microsome (Xenotech, cat. No R1000.1) working solutions were prepared in 100 mM potassium phosphate buffer.
# Cold (4° C.) acetonitrile (ACN) containing 200 ng/mL tolbutamide and 200 ng/mL labetalol as internal standards (IS).
# Incubation plates were pre-incubated for 10 minutes at 37° C. with constant shaking. 54 μL was transferred from Incubation plates into a blank plate and then 6 μL NADPH cofactor and 180 μL quenching solution was added to the Incubation plates. 5 μL Example working solution (100 μM) was also added to the Incubation plates and mixed thoroughly.
# The T60 Incubation plate was mixed thoroughly and for the 0-min timepoint, 54 μL was transferred into a Quenching plate (containing 180 μL quenching solution and 6 μL NADPH cofactor). 44 μL NADPH cofactor was then added to the T60 Incubation plate and incubated at 37° C. for 60 min while shaking. At 5, 15, 30, 45, and 60 min, 60 μL samples were transferred from T60 Incubation plate into a Quenching plate (containing 180 μl quenching solution). For the NCF60 Incubation plate, 50 μL of buffer was added and mixed thoroughly before incubation at 37° C. for 60 min while shaking, at the 60-min time point 60 μL was transferred to the Quenching plate (containing 180 μl quenching solution). All sampling plates were shaken for 10 min, then centrifuged at 4000 rpm for 20 minutes at 4° C. 80 μL supernatant was transferred into 240 μL HPLC water, and mixed for 10 min.
# [4] = Comparative solubility data for Reference Example 1 (thermodynamic and kinetic); type: physicochemical
# [5] = simulated gastric fluid, SGF (pH 1.2)
SMILES,% Example remaining 0 min [1] [%],Example concentration (nM) 0 min [1] [nM],% Example remaining 10 min [1] [%],Example concentration (nM) 10 min [1] [nM],"solubility kinetic at 24 h [2, 5] [µg/mL]",solubility kinetic at 24 h ([2]; FaSSIF (pH 6.5)) [µg/mL],FaSSIF (pH 6.5) % remaining 1 h [3] [%],FaSSIF (pH 6.5) % remaining 6 h [3] [%],FaSSIF (pH 6.5) % remaining 24 h [3] [%],PBS (pH 7.4) % remaining 1 h [3] [%],PBS (pH 7.4) % remaining 6 h [3] [%],PBS (pH 7.4) % remaining 24 h [3] [%],SGF (pH 1.2) % remaining 1 h [3] [%],SGF (pH 1.2) % remaining 6 h [3] [%],SGF (pH 1.2) % remaining 24 h [3] [%],CIint(mic) (in vitro) [µL/min/mg],half-life at 1 µM (in vitro) [min],further results
"CCOC(=O)c1ccc2c(c1)nc(OCCOCCCCNCc1cc(F)c(OC(F)(F)F)c(F)c1)c1ccncc12 [Example 8, ethyl 5-(2-(4-((3,5-difluoro-4-(trifluoromethoxy)benzyl)amino)butoxy)ethoxy)benzo[c][2,6]naphthyridine-8-carboxylate]",100.0,1687.0,0.2,3.1,17.8,82.8,98.5,102.6,100.4,63.2,25.3,7.6,108.2,63.8,23.3,37.6,61.4,–
"CC(C)(C)OC(=O)c1ccc2c(c1)nc(OCCOCCCCNCc1cc(F)c(OC(F)(F)F)c(F)c1)c1ccncc12 [Example 9, tert-butyl 5-(2-(4-((3,5-difluoro-4-(trifluoromethoxy)benzyl)amino)butoxy)ethoxy)benzo[c][2,6]naphthyridine-8-carboxylate]",–,–,–,–,16.1,88.3,92.1,98.3,96.1,80.9,27.9,10.0,102.1,57.9,19.6,78.9,29.3,–
"CCC(=O)OCOC(=O)c1ccc2c(c1)nc(OCCOCCCCNCc1cc(F)c(OC(F)(F)F)c(F)c1)c1ccncc12 [Example 12, (propionyloxy)methyl 5-(2-(4-((3,5-difluoro-4-(trifluoromethoxy)benzyl)amino)butoxy)ethoxy)benzo[c][2,6]naphthyridine-8-carboxylate]",–,–,–,–,7.4,97.5,94.9,96.5,99.8,76.4,6.3,1.1,101.3,49.5,10.1,90.8,25.4,–
"CC(=O)OCOC(=O)c1ccc2c(c1)nc(OCCOCCCCNCc1cc(F)c(OC(F)(F)F)c(F)c1)c1ccncc12 [Example 10, acetoxymethyl 5-(2-(4-((3,5-difluoro-4-(trifluoromethoxy)benzyl)amino)butoxy)ethoxy)benzo[c][2,6]naphthyridine-8-carboxylate]",100.0,2023.5,0.1,2.1,20.9,91.3,101.7,97.1,104.4,78.8,7.1,1.1,101.5,55.9,10.1,61.8,37.4,–
"CC(C)OC(=O)OCOC(=O)c1ccc2c(c1)nc(OCCOCCCCNCc1cc(F)c(OC(F)(F)F)c(F)c1)c1ccncc12 [Example 14, ((isopropoxycarbonyl)oxy)methyl 5-(2-(4-((3,5-difluoro-4-(trifluoromethoxy)benzyl)amino)butoxy)ethoxy)benzo[c][2,6]naphthyridine-8-carboxylate]",–,–,–,–,15,100,98.2,93.6,102.8,91.7,34.3,4.4,105.1,63.8,23.2,1604.8,1.4,–
"O=C(O)c1ccc2c(c1)nc(OCCOCCCCNCc1cc(F)c(OC(F)(F)F)c(F)c1)c1ccncc12 [Reference Example 1, 5-(2-(4-((3,5-difluoro-4-(trifluoromethoxy)benzyl)amino)butoxy)ethoxy)benzo[c][2,6]naphthyridine-8-carboxylic acid]",–,–,–,–,–,–,–,–,–,–,–,–,–,–,–,–,–,"solubility ([4]; aqueous buffer, kinetic from dmso stock, kinetic, phosphate buffer, initial pH 7.4): 31 µg/mL; solubility ([4]; aqueous buffer, thermodynamic from solid, thermodynamic, phosphate buffer, initial pH 1.0): 256 µg/mL; solubility ([4]; aqueous buffer, thermodynamic from solid, thermodynamic, phosphate buffer, initial pH 7.4): < 0.9 µg/mL; solubility ([4]; aqueous buffer, thermodynamic from solid, thermodynamic, phosphate buffer, initial pH 10.0): < 0.9 µg/mL; solubility ([4]; thermodynamic from solid, thermodynamic, FaSSIF, initial pH 6.5): 1.6 µg/mL"
"CCOC(=O)OCOC(=O)c1ccc2c(c1)nc(OCCOCCCCNCc1cc(F)c(OC(F)(F)F)c(F)c1)c1ccncc12 [Example 13, ((ethoxycarbonyl)oxy)methyl 5-(2-(4-((3,5-difluoro-4-(trifluoromethoxy)benzyl)amino)butoxy)ethoxy)benzo[c][2,6]naphthyridine-8-carboxylate]",100.0,1601.0,0.1,1.6,17.8,98,106.5,99.8,96.8,84.3,17.5,20.5,106.8,63.6,21.5,126.2,18.3,–
